Results as given in the NIST ThermoML archive (doi:10.1016/j.jct.2007.06.014).
± gives the expanded uncertainty stated by the source.

Settings: Liquid, Bellows volumetry

CCCC [butane]
mass density [kg/m3]
Settings	380 K	400 K	420 K	440 K
3000 kPa	463.27 ± 0.83	–	–	–
5000 kPa	474.65 ± 0.85	437.19 ± 0.79	–	–
10000 kPa	494.93 ± 0.89	466.97 ± 0.84	436.16 ± 0.79	401.28 ± 0.72
20000 kPa	521.9 ± 0.94	500.93 ± 0.9	479.15 ± 0.86	457.43 ± 0.82
30000 kPa	–	522.83 ± 0.94	504.89 ± 0.91	487.23 ± 0.88
40000 kPa	555.85 ± 1	539.73 ± 0.97	523.9 ± 0.94	508.57 ± 0.92
50000 kPa	–	553.54 ± 1	539.08 ± 0.97	525.26 ± 0.95
60000 kPa	579.32 ± 1	565.44 ± 1	551.8 ± 0.99	539.13 ± 0.97
70000 kPa	–	575.77 ± 1	563.07 ± 1	551.03 ± 0.99
80000 kPa	597.57 ± 1.1	585.08 ± 1.1	572.94 ± 1	561.56 ± 1
90000 kPa	–	593.33 ± 1.1	581.86 ± 1.1	571.14 ± 1
100000 kPa	612.79 ± 1.1	601.18 ± 1.1	589.89 ± 1.1	579.66 ± 1
120000 kPa	625.93 ± 1.1	614.9 ± 1.1	604.27 ± 1.1	594.85 ± 1.1
140000 kPa	637.29 ± 1.1	627.05 ± 1.1	617.11 ± 1.1	608.04 ± 1.1
160000 kPa	647.82 ± 1.2	637.77 ± 1.1	628.25 ± 1.1	619.73 ± 1.1
180000 kPa	657.28 ± 1.2	647.6 ± 1.2	638.65 ± 1.1	630.34 ± 1.1
200000 kPa	665.98 ± 1.2	656.49 ± 1.2	647.73 ± 1.2	639.98 ± 1.1
